Values of other authors in patent US7732395B2, “Water-stabilized antimicrobial organosilane products, compositions, and methods for using the same” (Vitec Specialty Chemicals Ltd., priority 2006, dated 2010).

Settings: prior art

Compound: CCCCCCCCCCCCCCCCCC[N+](C)(C)CCC[Si](OC)(OC)OC.[Cl-] [3-(trimethoxysilyl)propyl-dimethyloctadecyl ammonium chloride]
- time after which the mixture with water begins to lose effectiveness: four to eight
